Data from ChEMBL document CHEMBL4414672, “Synthesis of certain benzothieno[3,2-d]pyrimidine derivatives as a selective SIRT2 inhibitors” (Eur J Med Chem, 2020).

Assays:
Assay type in all cases: functional
HCT-15 = assay: Growth inhibition of human HCT15 cells at 10^-5 M incubated for 48 hrs by sulforhodamine B assay; conditions: HCT-15, 48 h, read-out: GI
DU-145 = assay: Growth inhibition of human DU145 cells at 10^-5 M incubated for 48 hrs by sulforhodamine B assay; conditions: DU-145, 48 h, read-out: GI
T47D = assay: Growth inhibition of human T47D cells at 10^-5 M incubated for 48 hrs by sulforhodamine B assay; conditions: read-out: GI
SW-620 = assay: Growth inhibition of human SW620 cells at 10^-5 M incubated for 48 hrs by sulforhodamine B assay; conditions: SW-620, 48 h, read-out: GI
SR = assay: Growth inhibition of human SR cells at 10^-5 M incubated for 48 hrs by sulforhodamine B assay; conditions: read-out: GI
MOLT-4 = assay: Growth inhibition of human MOLT4 cells at 10^-5 M incubated for 48 hrs by sulforhodamine B assay; conditions: MOLT-4, 48 h, read-out: GI
NCI-H226 = assay: Growth inhibition of human NCI-H226 cells at 10^-5 M incubated for 48 hrs by sulforhodamine B assay; conditions: NCI-H226, 48 h, read-out: GI
UACC-62 = assay: Growth inhibition of human UACC62 cells at 10^-5 M incubated for 48 hrs by sulforhodamine B assay; conditions: UACC-62, 48 h, read-out: GI
SNB-19 = assay: Growth inhibition of human SNB19 cells at 10^-5 M incubated for 48 hrs by sulforhodamine B assay; conditions: SNB-19, 48 h, read-out: GI
Hs-578T = assay: Growth inhibition of human Hs 578T cells at 10^-5 M incubated for 48 hrs by sulforhodamine B assay; conditions: read-out: GI
Malme-3M = assay: Growth inhibition of human MALME-3M cells at 10^-5 M incubated for 48 hrs by sulforhodamine B assay; conditions: read-out: GI
UACC-257 = assay: Growth inhibition of human UACC257 cells at 10^-5 M incubated for 48 hrs by sulforhodamine B assay; conditions: UACC-257, 48 h, read-out: GI
SF-539 = assay: Growth inhibition of human SF539 cells at 10^-5 M incubated for 48 hrs by sulforhodamine B assay; conditions: SF-539, 48 h, read-out: GI
COLO 205 = assay: Growth inhibition of human COLO205 cells at 10^-5 M incubated for 48 hrs by sulforhodamine B assay; conditions: COLO 205, 48 h, read-out: GI
EKVX = assay: Growth inhibition of human EKVX cells at 10^-5 M incubated for 48 hrs by sulforhodamine B assay; conditions: read-out: GI
IGROV-1 = assay: Growth inhibition of human IGROV1 cells at 10^-5 M incubated for 48 hrs by sulforhodamine B assay; conditions: IGROV-1, 48 h, read-out: GI
HT-29 = assay: Growth inhibition of human HT-29 cells at 10^-5 M incubated for 48 hrs by sulforhodamine B assay; conditions: HT-29, 48 h, read-out: GI
NCI-H322M = assay: Growth inhibition of human NCI-H322M cells at 10^-5 M incubated for 48 hrs by sulforhodamine B assay; conditions: read-out: GI
BT-549 = assay: Growth inhibition of human BT549 cells at 10^-5 M incubated for 48 hrs by sulforhodamine B assay; conditions: BT-549, 48 h, read-out: GI
LOX IMVI = assay: Growth inhibition of human LOXIMVI cells at 10^-5 M incubated for 48 hrs by sulforhodamine B assay; conditions: read-out: GI
CCRF-CEM = assay: Growth inhibition of human CCRF-CEM cells at 10^-5 M incubated for 48 hrs by sulforhodamine B assay; conditions: read-out: GI
A498 = assay: Growth inhibition of human A498 cells at 10^-5 M incubated for 48 hrs by sulforhodamine B assay; conditions: A498, 48 h, read-out: GI
MDA-MB-435 = assay: Growth inhibition of human MDA-MB-435 cells at 10^-5 M incubated for 48 hrs by sulforhodamine B assay; conditions: MDA-MB-435, 48 h, read-out: GI
OVCAR-5 = assay: Growth inhibition of human OVCAR5 cells at 10^-5 M incubated for 48 hrs by sulforhodamine B assay; conditions: OVCAR-5, 48 h, read-out: GI
OVCAR-3 = assay: Growth inhibition of human OVCAR3 cells at 10^-5 M incubated for 48 hrs by sulforhodamine B assay; conditions: OVCAR-3, 48 h, read-out: GI
OVCAR-4 = assay: Growth inhibition of human OVCAR4 cells at 10^-5 M incubated for 48 hrs by sulforhodamine B assay; conditions: OVCAR-4, 48 h, read-out: GI
CAKI-1 = assay: Growth inhibition of human Caki1 cells at 10^-5 M incubated for 48 hrs by sulforhodamine B assay; conditions: CAKI-1, 48 h, read-out: GI
SN12C = assay: Growth inhibition of human SN12C cells at 10^-5 M incubated for 48 hrs by sulforhodamine B assay; conditions: read-out: GI
SNB-75 = assay: Growth inhibition of human SNB75 cells at 10^-5 M incubated for 48 hrs by sulforhodamine B assay; conditions: SNB-75, 48 h, read-out: GI
ACHN = assay: Growth inhibition of human ACHN cells at 10^-5 M incubated for 48 hrs by sulforhodamine B assay; conditions: read-out: GI
PC-3 = assay: Growth inhibition of human PC3 cells at 10^-5 M incubated for 48 hrs by sulforhodamine B assay; conditions: PC-3, 48 h, read-out: GI
TK-10 = assay: Growth inhibition of human TK10 cells at 10^-5 M incubated for 48 hrs by sulforhodamine B assay; conditions: TK-10, 48 h, read-out: GI
NCI-H522 = assay: Growth inhibition of human NCI-H522 cells at 10^-5 M incubated for 48 hrs by sulforhodamine B assay; conditions: NCI-H522, 48 h, read-out: GI
A549 = assay: Growth inhibition of human A549/ATCC cells at 10^-5 M incubated for 48 hrs by sulforhodamine B assay; conditions: A549, 48 h, read-out: GI
SK-MEL-28 = assay: Growth inhibition of human SK-MEL-28 cells at 10^-5 M incubated for 48 hrs by sulforhodamine B assay; conditions: SK-MEL-28, 48 h, read-out: GI
MDA-MB-468 = assay: Growth inhibition of human MDA-MB-468 cells at 10^-5 M incubated for 48 hrs by sulforhodamine B assay; conditions: MDA-MB-468, 48 h, read-out: GI
MCF7 = assay: Growth inhibition of human MCF7 cells at 10^-5 M incubated for 48 hrs by sulforhodamine B assay; conditions: MCF7, 48 h, read-out: GI
SF-295 = assay: Growth inhibition of human SF295 cells at 10^-5 M incubated for 48 hrs by sulforhodamine B assay; conditions: SF-295, 48 h, read-out: GI
HCC 2998 = assay: Growth inhibition of human HCC2998 cells at 10^-5 M incubated for 48 hrs by sulforhodamine B assay; conditions: HCC 2998, 48 h, read-out: GI

| Structure (SMILES) | inhibition of growth at 10 µM (HCT-15) [%] | inhibition of growth at 10 µM (DU-145) [%] | inhibition of growth at 10 µM (T47D) [%] | inhibition of growth at 10 µM (SW-620) [%] | inhibition of growth at 10 µM (SR) [%] | inhibition of growth at 10 µM (MOLT-4) [%] | inhibition of growth at 10 µM (NCI-H226) [%] | inhibition of growth at 10 µM (UACC-62) [%] | inhibition of growth at 10 µM (SNB-19) [%] | inhibition of growth at 10 µM (Hs-578T) [%] | inhibition of growth at 10 µM (Malme-3M) [%] | inhibition of growth at 10 µM (UACC-257) [%] | inhibition of growth at 10 µM (SF-539) [%] | inhibition of growth at 10 µM (COLO 205) [%] | inhibition of growth at 10 µM (EKVX) [%] | inhibition of growth at 10 µM (IGROV-1) [%] | inhibition of growth at 10 µM (HT-29) [%] | inhibition of growth at 10 µM (NCI-H322M) [%] | inhibition of growth at 10 µM (BT-549) [%] | inhibition of growth at 10 µM (LOX IMVI) [%] | further results |
| --- | --- | --- | --- | --- | --- | --- | --- | --- | --- | --- | --- | --- | --- | --- | --- | --- | --- | --- | --- | --- | --- |
| NC(=O)CSC1=Nc2c(sc3ccc(Cl)cc23)C(c2cccc([N+](=O)[O-])c2)N1 (stereo not drawn) | -3.38 | -14.8 | 23.9 | -4.82 | 4.41 | 3.86 | 10.4 | 6.2 | -7.64 | 1.5 | 3.6 | -1.31 | 0.81 | -5.21 | 23.6 | 22 | -3.66 | 3.97 | -8.76 | 3.56 | inhibition of growth at 10 µM (CCRF-CEM): -22%; inhibition of growth at 10 µM (A498): 20.2%; inhibition of growth at 10 µM (MDA-MB-435): -11.3%; inhibition of growth at 10 µM (OVCAR-5): -5.8%; inhibition of growth at 10 µM (OVCAR-3): -4.8%; inhibition of growth at 10 µM (OVCAR-4): -4.84%; inhibition of growth at 10 µM (CAKI-1): 19.2%; inhibition of growth at 10 µM (SN12C): 1.64%; inhibition of growth at 10 µM (SNB-75): 5.27%; inhibition of growth at 10 µM (ACHN): 8.24%; inhibition of growth at 10 µM (PC-3): 7.5%; inhibition of growth at 10 µM (TK-10): -16.6%; inhibition of growth at 10 µM (NCI-H522): 6.5%; inhibition of growth at 10 µM (A549): -4.42%; inhibition of growth at 10 µM (SK-MEL-28): -21.2%; inhibition of growth at 10 µM (MDA-MB-468): 2.9%; inhibition of growth at 10 µM (MCF7): 22.4%; inhibition of growth at 10 µM (SF-295): -2.8%; inhibition of growth at 10 µM (HCC 2998): -5.21% |
| O=[N+]([O-])c1cccc(C2c3sc4ccc(Cl)cc4c3N=C3NN=CN32)c1 (stereo not drawn) | -1.1 | 28.2 | -3.72 | 5.16 | 4.93 | 0.47 | 21.7 | 3.57 | 1.87 | -18.1 | -2.71 | -3.45 | 6.94 | -6.88 | 15 | -11.9 | -15.1 | 5.8 | 16.9 | 6.72 | inhibition of growth at 10 µM (CCRF-CEM): -13.4%; inhibition of growth at 10 µM (A498): 22.4%; inhibition of growth at 10 µM (MDA-MB-435): -17.5%; inhibition of growth at 10 µM (OVCAR-5): -1.09%; inhibition of growth at 10 µM (OVCAR-3): -0.5%; inhibition of growth at 10 µM (OVCAR-4): 0.93%; inhibition of growth at 10 µM (CAKI-1): -3.12%; inhibition of growth at 10 µM (SN12C): -37.5%; inhibition of growth at 10 µM (SNB-75): -4.8%; inhibition of growth at 10 µM (ACHN): 22%; inhibition of growth at 10 µM (PC-3): -9.08%; inhibition of growth at 10 µM (TK-10): 39%; inhibition of growth at 10 µM (NCI-H522): 1.55%; inhibition of growth at 10 µM (A549): -0.61%; inhibition of growth at 10 µM (SK-MEL-28): -17.9%; inhibition of growth at 10 µM (MDA-MB-468): -15.5%; inhibition of growth at 10 µM (MCF7): 16.9%; inhibition of growth at 10 µM (SF-295): -3.63%; inhibition of growth at 10 µM (HCC 2998): -6.88% |
